What was measured:
Format in all cases: cell-based, human
A172 (glioblastoma) = assay: Study 2: CellTiter-Glo cell viability, DMEM without sodium pyruvate; details: increase in BOHB concentration (0, 4, 12 mM), 3 d, FIG. 7
Procedure: (§1) Cell lines established from human colon carcinoma (HCT15, NCI-H508 and COLO205), renal cell carcinoma (769-P, 786-O and RCC4) and glioblastoma (LN-18, A-172 and U-118 MG) were selected for the analysis. All cell lines were obtained from American Type Culture Collection (ATCC, LGC standards, UK) except for RCC4 and HCT15 that was purchased from Sigma-Aldrich (Merck, Germany). In addition, primary human renal cell carcinoma (RCC) cells isolated from patient nephrectomies were included in the study. […]
(§2) Optimal seeding density was determined for each cell line in 96 well plates according to the “Protocol for optimizing cell seeding densities to ensure Log-phase growth”. […] Cover the plate. • Incubate the plate overnight at 37° C., 5% CO2. • Add 50 μL of fresh media to the plate wells to achieve a final volume of 200 μL and incubate for 72 h at 37° C., 5% CO2. • Measure viability using Cell Titer Glo assay according to manufacturer's protocol. • Plot log cell number against luminescence intensity to identify the concentration of cells at which log growth is achieved.
(§3) CellTiter-Glo Luminescent cell viability assay (Promega) was used as a readout of viability.
(§4) For each cell line, optimal number of cells as determined above were seeded into 96-well plates on day 0. […]

[1] = tested on: RCC4 (renal cell carcinoma); assay: as above; details: increase in BOHB concentration (0, 4, 12 mM), 3 d, FIG. 7
Procedure: as §1, §2, §3, §4

[2] = tested on: RCC4 renal carcinoma cell line; assay: Example 2: CellTiter-Glo readout of cell numbers in Medium A-C; details: high levels of BOHB or combination of BOHB and Acac, FIG. 16
Procedure: To study the effect of a nutrient restricted ketogenic environment on cancer cell growth in vitro, three different cell culture media were formulated. Medium A was full RPMI1640 medium that the cell lines routinely are cultured in. Medium B was used as an approximation of the conditions found in normal human serum. The levels of glucose, glutamine, serine, glycine and arginine were adjusted to match normal physiological levels found in human serum. These nutrients were selected based on their reported use as energy source and effects on cancer cell metabolic state. Medium C was used to emulate the ketogenic nutrient restricted Cancer Dialysis condition. […]
All cell lines were purchased from ATCC (ATCC, LGC standards) except for RCC4 that was from Sigma-Aldrich (Merck). […] Optimal seeding density was determined for each cell line in 96-well plates cultured for 3 days in standard cell culture medium. […]
In Medium B, to mimic physiological conditions, the levels of glutamine, serine, glycine, arginine and glucose were set to the median of measured levels in human serum, based on data from the Mayo Clinic Laboratories (https://www.mayocliniclabs.com/test-catalog/Clinical+and+Interpretive/9265). […]
CellTiter-Glo Luminescent cell viability assay (Promega) was used as a readout of cell numbers according to the manufacturers' instructions. […]

glioma cell line A172 = assay: Example 2: CellTiter-Glo readout of cell numbers, ketones added to Medium A-C; details: for growth, repeat experiments 2-6 (inconsistent results): ketone added separately (16 mM BOHB or 8 mM Acac), FIG. 14; for number of cells compared to 8 mM LiCl control: 8 mM Acac
Procedure: (§5) To study the effect of a nutrient restricted ketogenic environment on cancer cell growth in vitro, three different cell culture media were formulated. Medium A was full RPMI1640 medium that the cell lines routinely are cultured in. Medium B was used as an approximation of the conditions found in normal human serum. The levels of glucose, glutamine, serine, glycine and arginine were adjusted to match normal physiological levels found in human serum. These nutrients were selected based on their reported use as energy source and effects on cancer cell metabolic state. Medium C was used to emulate the ketogenic nutrient restricted Cancer Dialysis condition. Here, the levels of the selected nutrients were reduced to half of the physiological levels in Medium B, and the ketone body BOHB was added.
(§6) Human cancer cell lines are routinely established and cultured at atmospheric oxygen levels (21% O2), yet, the physiological oxygen levels in tissue is considerably lower and varies from 3-13% [Ward, Biochim Biophys Acta 2008; 1777:1-14. Within the tumor microenvironment, the fast growth rate of cancer cells combined with an often malformed and defective vasculature often results in hypoxic regions with oxygen levels ranging from 0-5%. Given the effects of oxygen levels on energy metabolism [Xie et al., J Biol Chem 2017; 292:16825-16832], and to further mimic the physiological conditions in vivo, the growth of the cancer cell lines in Medium A, B and C was studied at both ambient, 21% O2, and at the more physiological 5% O2.
(§7) Cells were maintained in RPMI-1640 medium (31870-025 GIBCO) with the addition of 10% serum, 200 mM L-glutamine and 1% penicillin-streptomycin (PEST) in humidified chambers at 37° C. and 5% CO2. For hypoxic conditions (5% O2), cells were maintained in a Galaxy 14 S CO2 incubator (Eppendorf) where N2 was used to adjust the O2 level to 5%.
(§8) Medium A: RPMI1640 (31870-025, GIBCO) with the addition of 1% PEST, 200 mM L-glutamine and 10% dialyzed serum. Dialyzed serum was used to reduce the amounts of small molecules such as amino acids.
(§9) Medium B and C were prepared from RPMI1640 modified medium powder without L-glutamine, glucose and amino acids (R9010-01, US Biological Life Sciences). For 1 L medium, 7.4 g powder was dissolved in 900 ml sterile water without heating and 2 g sodium bicarbonate was added. Amino acids listed in Table 5 were added to the same concentration as in full RPMI1640 medium (Table 5). After all additions, the medium was sterilized by filtering through 0.22 um membranes and divided into two bottles.
(§10) In Medium B, to mimic physiological conditions, the levels of glutamine, serine, glycine, arginine and glucose were set to the median of measured levels in human serum, based on data from the Mayo Clinic Laboratories (https://www.mayocliniclabs.com/test-catalog/Clinical+and+Interpretive/9265).
(§11) To model Cancer Dialysis conditions in Medium C, the levels of these nutrients were reduced to 50% of the physiological levels. As for Medium A, 1% PEST and 10% dialyzed serum were added to Medium B and C. Sodium pyruvate, that is a common addition in cell culture medium, was not present in any of the used media.
(§12) Stock solutions of DL-β-Hydroxybutyric acid sodium salt (H6501, Sigma Aldrich) and Lithium Acetoacetate (A8509, Sigma Aldrich) were prepared in water, sterile filtered, aliquoted and stored at −20° C. Lithium Chloride (L7026, Sigma Aldrich) was used as a control for the addition of Lithium in the Li-Acac.
(§13) CellTiter-Glo Luminescent cell viability assay (Promega) was used as a readout of cell numbers according to the manufacturers' instructions. In experiments shown in FIG. 12-13, double plates were seeded and treated. One set of plates was used for collection of medium for lactate measurement (see below) and the CellTiterGlo-assay. The other set of plates was frozen at −80° C. at the end of the experiment. […]

glioma cell line U118MG = assay: as above; details: for growth, repeat experiments 2-6 (inconsistent results): ketone added separately (16 mM BOHB or 8 mM Acac), FIG. 15; for number of cells compared to 8 mM LiCl control: 8 mM Acac
Procedure: as §5, §6, §7, §8, §9, §10, §11, §12, §13

[3] = Medium C, 16 mM BOHB, at both 21 and 5% O2
[4] = Medium A, both normoxia and hypoxia

| Structure (SMILES) | proliferation of cells (A172 (glioblastoma)) | proliferation of cells [1] | increased sensitivity to ketones in nutrient restricted Medium C [2] | growth inhibitory effect (glioma cell line A172; Medium A, 16 mM BOHB alone, both normoxia and hypoxia, FIG. 12) | number of cells, % of the amount in Medium B without BOHB (glioma cell line A172; Medium B, hypoxic (5% O2), BOHB added (16 mM)) | number of cells, % compared to C-medium without BOHB (glioma cell line A172; [3]) | growth, repeat experiments 2-6 (inconsistent results) (glioma cell line A172; Medium C) | growth inhibitory effect (glioma cell line U118MG; Medium A, 16 mM BOHB alone, both normoxia and hypoxia, FIG. 13) | number of cells, % compared to C-medium without BOHB (glioma cell line U118MG; [3]) | growth, repeat experiments 2-6 (inconsistent results) (glioma cell line U118MG; Medium C) | number of cells compared to 8 mM LiCl control (glioma cell line A172; [4]) | number of cells compared to 8 mM LiCl control (glioma cell line A172; Medium B, 5% O2) | number of cells compared to 8 mM LiCl control (glioma cell line A172; Medium B, 21% O2) | amounts of cells compared to 8 mM LiCl control (glioma cell line A172; Medium C, 8 mM Acac alone) | number of cells compared to 8 mM LiCl control (glioma cell line U118MG; [4]) | number of cells compared to 8 mM LiCl control (glioma cell line U118MG; Medium B, 5% O2) | number of cells compared to 8 mM LiCl control (glioma cell line U118MG; Medium B, 21% O2) | amounts of cells compared to 8 mM LiCl control (glioma cell line U118MG; Medium C, 8 mM Acac alone) |
| --- | --- | --- | --- | --- | --- | --- | --- | --- | --- | --- | --- | --- | --- | --- | --- | --- | --- | --- |
| CC(O)CC(=O)[O-].[Na+] (racemic) [BOHB, DL-β-Hydroxybutyric acid sodium salt] | suppresses the proliferation of cells | suppresses the proliferation of cells | not found | no growth inhibitory effect | approximately 70% | around 30% | trend of reduced growth | no growth inhibitory effect | around 30% | trend of reduced growth | – | – | – | – | – | – | – | – |
| CC(=O)CC(=O)[O-].[Li+] [Acac, Lithium Acetoacetate] | – | – | – | – | – | – | trend of reduced growth | – | – | trend of reduced growth | did not reduce the number of cells further | only at 21% O2 | reduced the number of cells significantly | did not significantly reduce the amounts of cells | did not reduce the number of cells further | only at 21% O2 | reduced the number of cells significantly | did not significantly reduce the amounts of cells |

— US20240374797A1, “SYSTEM AND METHOD FOR EXTRACORPOREAL BLOOD TREATMENT” (Gambro Lundia AB, priority 2020, published 2024)
